Where two headings read alike, the source gives them in different places.
Columns and labels:
[1] = test system: genotype 1a NS3/4a protease inhibitor resistant variant R155K transient HCV replicon in Huh-7-derived cells; assay: Transient-transfected HCV replicon EC50, genotype 1a R155K; assay type: cell-based, hepatitis C virus; settings: 72 h
[2] = test system: genotype 1a (H77) stable HCV replicon in Huh-7-derived cells; assay: Stable subgenomic HCV replicon EC50, genotype 1a (Renilla luciferase); assay type: cell-based, hepatitis C virus; settings: stable replicon genotype 1a, 72 h, read-out: EC50 1A RLUC
Procedure, shortened: (§1)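 Compounds, three-fold diluted, were applied to Huh-7-derived cells harbouring luciferase replicons (genotype 1a H77, 1b Con1, 2a JFH-1, 4a ED43, with strain-specific adaptive mutations). Seventy-two hours later, intracellular replication was gauged by Renilla luciferase activity and EC50 derived by regression.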

[3] = test system: genotype 2a (JFH-1) stable HCV replicon in Huh-7-derived cells; assay: Stable subgenomic HCV replicon EC50, genotype 2a (Renilla luciferase); assay type: cell-based, hepatitis C virus; settings: stable replicon genotype 2a, 72 h, read-out: EC50 2A RLUC
Procedure, shortened: as §1

[4] = test system: genotype 1a (H77) wild type transient HCV replicon in Huh-7-derived cells; assay: Transient-transfected HCV replicon EC50, genotype 1a wild type; assay type: cell-based, hepatitis C virus; settings: 72 h, transient-transfected replicon genotype 1a wild type, read-out: EC50 1A WT
[5] = molecular target: HCV NS3 protease domain genotype 1b (Hepatitis C virus genotype 1b (isolate Con1), UniProt Q9WMX2, E1202G); assay: Ki determination, NS3 protease genotype 1b (fluorogenic depsipeptide substrate); assay type: biochemical; settings: 50 pM enzyme, NS4A peptide
HCV NS3 protease domain genotype 1b, sequence (Q9WMX2 1027-1208 E1202G): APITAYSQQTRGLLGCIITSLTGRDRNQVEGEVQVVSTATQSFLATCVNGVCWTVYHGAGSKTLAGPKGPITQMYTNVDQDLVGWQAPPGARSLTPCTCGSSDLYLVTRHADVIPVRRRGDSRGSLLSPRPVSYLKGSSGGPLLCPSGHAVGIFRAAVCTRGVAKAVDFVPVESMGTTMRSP
Procedure: Purified NS3 protease domain (amino acids 1-181) of the genotype 1b and 3a virus were generated as above.
Reactions were run at room temperature in buffer consisting of 50 mM HEPES, 40% glycerol, 0.05% Triton X-100, 10 mM DTT, and 10% DMSO. The final assay solutions contained 50 pM NS3 genotype 1 b protease or 200 pM genotype 3a protease, 20 μM NS4A peptide, and 4 μM substrate (genotype 1b) or 2 μM substrate (genotype 3a). Inhibitor concentrations varied from 100 nM to 5 pM in 3-fold dilutions, and no-inhibitor controls were included.
Compound dilutions were made in DMSO at 20× final concentration. Reaction mixtures were prepared in 96-well assay plates. A solution of enzyme and NS4A peptide in assay buffer (25 μL volume with both reagents at 4× final concentration) was mixed with 45 μL assay buffer and 5 μL of either inhibitor or DMSO, and pre-incubated at room temperature for 1 hour. The reaction was started by addition of 25 μL substrate solution at 4× final concentration. Plates were mixed vigorously for 5-10 seconds and reactions were allowed to proceed for 90 minutes, fluorescence was measured every 30 s between 90 and 120 minutes reaction time using a Tecan InfiniTe M1000 or PerkinElmer Envision multimode plate reader with an excitation wavelength of 340 nm and an emission wavelength of 490 nm.
To determine the Ki, rates were plotted as a function of inhibitor concentration, and the data were fit with equation 1 (Morrison, J. F., Biochimica et Biophysica Acta 1969, 185, 269-286) to calculate Ki^app using GraphPad Prism 5. […] Ki was calculated from Ki^app/(1+[[S]/Km]).

[6] = test system: genotype 1b (Con1) stable HCV replicon in Huh-7-derived cells; assay: Stable subgenomic HCV replicon EC50, genotype 1b (Renilla luciferase); assay type: cell-based, hepatitis C virus; settings: stable replicon genotype 1b, 72 h, read-out: EC50 1B RLUC
Procedure, shortened: as §1

[7] = molecular target: HCV NS3 protease domain genotype 3a (Hepatitis C virus genotype 3a, UniProt Q81258); assay: Ki determination, NS3 protease genotype 3a (fluorogenic depsipeptide substrate); assay type: biochemical; settings: 200 pM enzyme, NS4A peptide
HCV NS3 protease domain genotype 3a, sequence (Q81258 whole entry, looked up, the tested form may be a part): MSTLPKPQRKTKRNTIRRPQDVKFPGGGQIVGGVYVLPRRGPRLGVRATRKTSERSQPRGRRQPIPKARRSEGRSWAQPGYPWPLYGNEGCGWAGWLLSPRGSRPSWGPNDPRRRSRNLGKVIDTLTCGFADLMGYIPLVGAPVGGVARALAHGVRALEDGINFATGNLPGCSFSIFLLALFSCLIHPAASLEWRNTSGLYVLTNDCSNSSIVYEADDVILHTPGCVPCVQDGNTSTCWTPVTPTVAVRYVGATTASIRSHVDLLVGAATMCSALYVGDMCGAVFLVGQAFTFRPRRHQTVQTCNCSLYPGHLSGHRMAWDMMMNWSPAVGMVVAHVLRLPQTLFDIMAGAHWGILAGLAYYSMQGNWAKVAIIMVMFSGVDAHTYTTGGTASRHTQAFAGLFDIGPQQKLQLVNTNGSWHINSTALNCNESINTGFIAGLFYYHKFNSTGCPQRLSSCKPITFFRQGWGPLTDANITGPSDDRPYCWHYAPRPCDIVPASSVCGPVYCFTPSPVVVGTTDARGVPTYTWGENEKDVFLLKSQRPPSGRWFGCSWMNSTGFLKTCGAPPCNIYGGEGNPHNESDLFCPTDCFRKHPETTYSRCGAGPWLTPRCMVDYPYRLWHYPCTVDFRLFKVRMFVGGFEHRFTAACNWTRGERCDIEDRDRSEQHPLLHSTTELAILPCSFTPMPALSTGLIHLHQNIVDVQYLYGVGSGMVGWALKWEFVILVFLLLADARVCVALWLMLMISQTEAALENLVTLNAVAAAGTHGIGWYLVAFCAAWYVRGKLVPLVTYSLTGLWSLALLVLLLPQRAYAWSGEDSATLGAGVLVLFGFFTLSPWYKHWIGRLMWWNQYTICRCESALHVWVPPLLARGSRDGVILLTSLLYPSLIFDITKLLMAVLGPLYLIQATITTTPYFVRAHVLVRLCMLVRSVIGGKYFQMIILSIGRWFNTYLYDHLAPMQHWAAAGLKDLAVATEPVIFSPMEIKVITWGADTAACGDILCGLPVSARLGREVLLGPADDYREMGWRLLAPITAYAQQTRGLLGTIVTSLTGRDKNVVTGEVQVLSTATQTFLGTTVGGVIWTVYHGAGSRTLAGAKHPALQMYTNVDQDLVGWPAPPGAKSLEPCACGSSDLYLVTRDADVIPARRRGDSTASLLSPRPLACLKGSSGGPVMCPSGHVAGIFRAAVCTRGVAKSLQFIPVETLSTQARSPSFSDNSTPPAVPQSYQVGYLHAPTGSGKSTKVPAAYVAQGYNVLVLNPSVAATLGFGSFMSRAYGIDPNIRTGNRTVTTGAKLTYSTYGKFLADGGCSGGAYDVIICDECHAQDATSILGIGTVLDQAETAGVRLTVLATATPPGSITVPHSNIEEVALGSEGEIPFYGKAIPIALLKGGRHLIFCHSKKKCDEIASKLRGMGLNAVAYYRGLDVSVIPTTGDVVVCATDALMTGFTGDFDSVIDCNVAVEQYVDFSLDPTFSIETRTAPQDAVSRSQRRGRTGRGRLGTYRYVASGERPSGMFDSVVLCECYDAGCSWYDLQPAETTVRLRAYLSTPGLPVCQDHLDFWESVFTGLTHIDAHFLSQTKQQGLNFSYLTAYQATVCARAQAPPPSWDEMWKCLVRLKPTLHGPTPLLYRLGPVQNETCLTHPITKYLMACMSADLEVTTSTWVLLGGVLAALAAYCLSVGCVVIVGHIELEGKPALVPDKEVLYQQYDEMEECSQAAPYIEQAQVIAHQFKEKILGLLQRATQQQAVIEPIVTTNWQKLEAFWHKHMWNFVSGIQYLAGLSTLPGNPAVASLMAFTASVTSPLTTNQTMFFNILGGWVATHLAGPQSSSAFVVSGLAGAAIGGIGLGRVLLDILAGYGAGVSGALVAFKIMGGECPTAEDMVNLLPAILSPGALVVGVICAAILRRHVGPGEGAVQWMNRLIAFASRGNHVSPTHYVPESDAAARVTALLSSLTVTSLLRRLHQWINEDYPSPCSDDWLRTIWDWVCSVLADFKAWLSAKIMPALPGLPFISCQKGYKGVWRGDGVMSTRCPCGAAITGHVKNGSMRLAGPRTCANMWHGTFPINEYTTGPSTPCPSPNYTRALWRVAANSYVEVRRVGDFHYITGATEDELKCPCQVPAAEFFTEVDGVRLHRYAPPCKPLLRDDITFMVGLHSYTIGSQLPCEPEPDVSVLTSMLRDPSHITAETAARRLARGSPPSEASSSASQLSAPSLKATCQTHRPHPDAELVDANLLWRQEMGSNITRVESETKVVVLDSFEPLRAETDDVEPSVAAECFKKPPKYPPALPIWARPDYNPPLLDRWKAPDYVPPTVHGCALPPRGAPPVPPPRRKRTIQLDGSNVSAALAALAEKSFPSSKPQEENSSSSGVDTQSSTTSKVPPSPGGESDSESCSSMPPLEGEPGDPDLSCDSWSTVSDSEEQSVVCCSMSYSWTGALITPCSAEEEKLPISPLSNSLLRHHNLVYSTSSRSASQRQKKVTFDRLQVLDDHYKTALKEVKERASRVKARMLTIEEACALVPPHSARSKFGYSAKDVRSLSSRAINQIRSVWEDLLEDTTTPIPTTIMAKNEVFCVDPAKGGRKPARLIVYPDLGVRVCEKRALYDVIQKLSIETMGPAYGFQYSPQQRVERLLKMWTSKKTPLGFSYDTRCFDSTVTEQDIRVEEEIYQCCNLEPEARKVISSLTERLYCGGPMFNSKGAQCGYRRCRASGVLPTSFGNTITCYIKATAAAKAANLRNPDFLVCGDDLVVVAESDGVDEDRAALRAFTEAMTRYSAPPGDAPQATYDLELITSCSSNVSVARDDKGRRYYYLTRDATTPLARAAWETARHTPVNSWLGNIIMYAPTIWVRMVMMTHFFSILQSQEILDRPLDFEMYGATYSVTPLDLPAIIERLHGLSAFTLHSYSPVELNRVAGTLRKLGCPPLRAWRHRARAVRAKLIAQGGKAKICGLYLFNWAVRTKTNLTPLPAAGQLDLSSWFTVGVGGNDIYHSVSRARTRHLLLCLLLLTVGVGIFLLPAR
Procedure, shortened: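 The NS3 protease domain (aa 1-181) with 20 μM NS4A peptide was used at 50 pM with 4 μM substrate (1b) or at 200 pM with 2 μM substrate (3a). Inhibitors (100 nM-5 pM) were pre-incubated 1 h at room temperature in HEPES/glycerol/DTT buffer with 10% DMSO. Steady-state rates (90-120 min) gave Ki via the Morrison equation, corrected for active enzyme and [S]/Km.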

[8] = test system: genotype 1b NS3/4a protease inhibitor resistant variant D168A transient HCV replicon in Huh-7-derived cells; assay: Transient-transfected HCV replicon EC50, genotype 1b D168A; assay type: cell-based, hepatitis C virus; settings: Hepatitis C virus, 72 h, read-out: EC50 1B D168A, transient-transfected replicon genotype 1b D168A resistant variant, 72 h
[9] = test system: genotype 1b (Con1) wild type transient HCV replicon in Huh-7-derived cells; assay: Transient-transfected HCV replicon EC50, genotype 1b wild type; assay type: cell-based, hepatitis C virus; settings: 72 h, transient-transfected replicon genotype 1b wild type, read-out: EC50 1B WT
[10] = test system: genotype 3a (S52) stable HCV replicon in Huh-7-derived cells; assay: Stable subgenomic HCV replicon EC50, genotype 3a (Renilla luciferase); assay type: cell-based, hepatitis C virus; settings: 72 h, read-out: EC50 3A RLUC
[11] = test system: genotype 3a (S52) wild type transient HCV replicon in Huh-7-derived cells; assay: Transient-transfected HCV replicon EC50, genotype 3a wild type; assay type: cell-based, hepatitis C virus; settings: transient-transfected replicon genotype 3a wild type, 72 h, read-out: EC50 3A WT
[12] = test system: genotype 4a (ED43) stable HCV replicon in Huh-7-derived cells; assay: Stable subgenomic HCV replicon EC50, genotype 4a (Renilla luciferase); assay type: cell-based, hepatitis C virus; settings: 72 h, read-out: EC50 4A RLUC
Procedure, shortened: as §1

[13] = Hepatitis C virus, read-out: EC50 1A R155K, transient-transfected replicon genotype 1a R155K resistant variant, 72 h

Compound	EC50 [1, 13] [nM]	EC50 ([2]; Hepatitis C virus) [nM]	EC50 ([3]; Hepatitis C virus) [nM]	EC50 ([4]; Hepatitis C virus) [nM]	Ki [5] [nM]	EC50 ([6]; Hepatitis C virus) [nM]	Ki [7] [nM]	EC50 [8] [nM]	EC50 ([9]; Hepatitis C virus) [nM]	EC50 ([10]; Hepatitis C virus) [nM]	EC50 ([11]; Hepatitis C virus) [nM]	EC50 ([12]; Hepatitis C virus) [nM]	also measured
CCC[C@@H]1[C@@H]2CN(C(=O)[C@H](C(C)(C)C)NC(=O)O[C@@H]3C[C@H]3CCCCC(F)(F)c3nc4ccc(OC)cc4nc3O2)[C@@H]1C(=O)N[C@]1(C(=O)NS(=O)(=O)C2CC2)C[C@H]1C(F)F [Example 60, (1aR,5S,8S,9S,10R,22aR)-5-tert-butyl-N-[(1R,2R)-1-[(cyclopropylsulfonyl)carbamoyl]-2-(difluoromethyl)cyclopropyl]-18,18-difluoro-14-methoxy-3,6-dioxo-9-propyl-1,1a,3,4,5,6,9,10,18,19,20,21,22,22a-tetradecahydro-8H-7,10-methanocyclopropa[18,19][1,10,3,6]dioxadiazacyclononadecino[11,12-b]quinoxaline-8-carboxamide]	8.6	11	7.7	5.8	0.04	4.8	0.08	15	2.3	45	9.8	5.4	–
COc1ccc2nc3c(nc2c1)O[C@H]1CN(C(=O)[C@H](C(C)(C)C)NC(=O)O[C@@H]2C[C@@H]4C[C@@H]4[C@H]2CCCCC3(F)F)[C@H](C(=O)N[C@]2(C(=O)NS(=O)(=O)C3CC3)C[C@H]2C(F)F)[C@@H]1C [Example 62, (1aS,2aR,6S,9S,10S,11R,23aR,23bS)-6-tert-butyl-N-[(1R,2R)-1-[(cyclopropylsulfonyl)carbamoyl]-2-(difluoromethyl)cyclopropyl]-19,19-difluoro-15-methoxy-10-methyl-4,7-dioxo-1a,2,2a,4,5,6,7,10,11,19,20,21,22,23,23a,23b-hexadecahydro-1H,9H-8,11-methanocyclopropa[4′,5′]cyclopenta[1′,2′:18,19][1,10,3,6]dioxadiazacyclononadecino[11,12-b]quinoxaline-9-carboxamide]	2.7	3.4	5	3.5	0.04	3	0.03	2	1.5	8.5	4	2.4	–
COc1ccc2nc3c(nc2c1)O[C@H]1CN(C(=O)[C@H](C(C)(C)C)NC(=O)O[C@@H]2C[C@@H]4C[C@@H]4[C@H]2CCCCC3)[C@H](C(=O)NC2(C(=O)NS(=O)(=O)C3CC3)C[C@H]2C(F)F)[C@@H]1C (stereo in doubt) [Example 33, (1aS,2aR,6S,9S,10S,11R,23aR,23bS)-6-tert-butyl-N-[(1 S,2R)-1-[(cyclopropylsulfonyl)carbamoyl]-2-(difluoromethyl)cyclopropyl]-15-methoxy-10-methyl-4,7-dioxo-1a,2,2a,4,5,6,7,10,11,19,20,21,22,23,23a,23b-hexadecahydro-1H,9H-8,11-methanocyclopropa[4′,5′]cyclopenta[1′,2′:18,19][1,10,3,6]dioxadiazacyclononadecino[11,12-b]quinoxaline-9-carboxamide]	2.5	7.6	4.9	2.6	0.03	2.8	0.06	4.2	1.6	16	5.3	2.3	–
(1aR,5S,8S,9S,10R,22aR)-5-tert-butyl-N-[(1R,2R)-2-(difluoromethyl)-1-{[(1-methylcyclopropyl)sulfonyl]carbamoyl}cyclopropyl]-8-fluoro-14-methoxy-9-methyl-3,6-dioxo-1,1a,3,4,5,6,9,10,18,19,20,21,22,22a-tetradecahydro-8H-7,10-methanocyclopropa[18,19][1,10,3,6]dioxadiazacyclononadecino[1,12-b]quinoxaline-8-carboxamide [Example 47]	–	–	–	–	0.07	–	0.19	–	–	–	–	–	EC50 ([1]; transient-transfected replicon genotype 1a R155K resistant variant, read-out: EC50 1A R155K): 6.1 nM; EC50 [2]: 3.8 nM; EC50 [3]: 12 nM; EC50 [4]: 5.4 nM; EC50 [6]: 3.6 nM; EC50 [9]: 2 nM; EC50 ([10]; stable replicon genotype 3a, Renilla luciferase): 58 nM; EC50 [11]: 17 nM; EC50 ([12]; stable replicon genotype 4a, Renilla luciferase): 4.2 nM
CC[C@@H]1[C@@H]2CN(C(=O)[C@H](C(C)(C)C)NC(=O)O[C@@H]3C[C@@H]4C[C@@H]4[C@H]3CCCCC(F)(F)c3nc4ccc(OC)cc4nc3O2)[C@@H]1C(=O)N[C@]1(C(=O)NS(=O)(=O)C2CC2)C[C@H]1C(F)F [Example 59, (1aS,2aR,6S,9S,10 S,11R,23aR,23bS)-6-tert-butyl-N-[(1R,2R)-1-[(cyclopropylsulfonyl)carbamoyl]-2-(difluoromethyl)cyclopropyl]-10-ethyl-19,19-difluoro-15-methoxy-4,7-dioxo-1a,2,2a,4,5,6,7,10,11,19,20,21,22,23,23a,23b-hexadecahydro-1H,9H-8,11-methanocyclopropa[4′,5′]cyclopenta[1′,2′:18,19][1,10,3,6]dioxadiazacyclononadecino[11,12-b]quinoxaline-9-carboxamide]	6.8	5.4	13	10	0.04	11	0.06	6.4	6.8	20	15	5.6	–
C[C@@H]1[C@@H]2CN(C(=O)[C@H](C(C)(C)C)NC(=O)O[C@@H]3C[C@@H]4C[C@@H]4[C@H]3CCCCCc3nc4ccc(F)cc4nc3O2)[C@@H]1C(=O)N[C@]1(C(=O)NS(=O)(=O)C2(C)CC2)C[C@H]1C(F)F [Example 86, (1aS,2aR,6S,9S,10S,11R,23aR,23bS)-6-tert-butyl-N-[(1R,2R)-2-(difluoromethyl)-1-{[(1-methylcyclopropyl)sulfonyl]carbamoyl}cyclopropyl]-15-fluoro-10-methyl-4,7-dioxo-1a,2,2a,4,5,6,7,10,11,19,20,21,22,23,23a,23b-hexadecahydro-1H,9H-8,11-methanocyclopropa[4′,5′]cyclopenta[1′,2′:18,19][1,10,3,6]dioxadiazacyclononadecino[11,12-b]quinoxaline-9-carboxamide]	3.7	5.6	5.9	4	0.04	5.5	0.07	10	3.4	42	16	5.7	–
